Experiment: mn = molality of the nth substance listed, in mol/kg
Details: 101 kPa, Liquid; for viscosity: Capillary tube (Ostwald / Ubbelohde) method; for mass density: Vibrating tube method

Cc1ccc(N)cc1N [4-methyl-1,3-benzendiamine] + CCCO
Details | mass density, 293.15 K [kg/m3] | mass density, 303.15 K [kg/m3] | mass density, 313.15 K [kg/m3] | mass density, 323.15 K [kg/m3] | mass density, 333.15 K [kg/m3] | viscosity, 293.15 K [mPa·s] | viscosity, 303.15 K [mPa·s] | viscosity, 313.15 K [mPa·s] | viscosity, 323.15 K [mPa·s] | viscosity, 333.15 K [mPa·s]
m1 = 0.05 | 805.47 | 797.13 | 788.94 | 780.57 | 771.96 | 2.189 | 1.71 | 1.348 | 1.074 | 0.864
m1 = 0.1003 | 807.05 | 798.71 | 790.49 | 782.12 | 773.5 | 2.206 | 1.723 | 1.354 | 1.079 | 0.868
m1 = 0.15 | 808.57 | 800.22 | 792.01 | 783.62 | 774.99 | 2.225 | 1.735 | 1.365 | 1.086 | 0.875
m1 = 0.1997 | 810.04 | 801.7 | 793.49 | 785.09 | 776.45 | 2.247 | 1.748 | 1.372 | 1.091 | 0.878
m1 = 0.2499 | 811.49 | 803.17 | 794.96 | 786.55 | 777.91 | 2.267 | 1.759 | 1.382 | 1.099 | 0.883
m1 = 0.2999 | 812.87 | 804.6 | 796.4 | 787.99 | 779.34 | 2.294 | 1.774 | 1.389 | 1.106 | 0.889
m1 = 0.3496 | 814.24 | 805.98 | 797.83 | 789.4 | 780.74 | 2.315 | 1.79 | 1.401 | 1.112 | 0.893
m1 = 0.3994 | 815.57 | 807.34 | 799.22 | 790.77 | 782.12 | 2.338 | 1.806 | 1.412 | 1.117 | 0.899
